SMILES strings stand for the structures.

The test system of assay [1] is HCT116 cells. Kind of assay: Transwell migration/invasion and wound healing assay, HCT116. It is filed as cell-based, human. To be noted: HCT116; 10 μg/ml EpAb2-6 and 10 μM crizotinib; 24 h; vs control IgG; FIG. 7G. As for the experimental part: FIGS. 3A to 3H. EpEX induces the activation of ERK and FAK-AKT signaling pathway. Wild type (WT) or EpCAM knockout (KO) HCT116 cells after EpEX-His treatment. (FIG. 3A) The levels of phosphorylated HGFR, AKT, FAK, GSK3β, ERK, ADAM17, and presenilin 2 were assayed by Western blotting. (FIG. 3B) Colony formation was examined by crystal violet staining. (FIG. 3C) HCT116 cells were treated with TAPI (ADAM17 inhibitor) or DAPT (γ-secretase inhibitor) for 24 hours, and the phosphorylation of HGFR, AKT, and ERK was analyzed by Western blotting, and EpEX protein level in culture medium was examined by immunoprecipitation and Western blotting. (FIG. 3D) HCT116 and HT29 cells were starved for 16 h, then treated with EpEX-His (50 nM) and HGF (0.5 nM) for 15 min. The levels of phosphorylated HGFR, AKT, and ERK were examined by Western blotting. (FIG. 3E) HCT116 cells were starved for 16 h, then treated with 50 nM EpEX-His for 15 min. HGFR inhibitor SU11274 (SU, 10 μM), AKT inhibitor LY294002 (LY, 25 μM), ERK inhibitor U0126 (U0, 20 μM), or FAK inhibitor PF-562271 (PF, 10 μM) were applied 1 h before EpEX treatment. Phosphorylation of AKT, ERK, and FAK was examined by Western blotting. (FIG. 3F) HCT116 cells were starved for 16 h, then treated with 50 nM EpEX, and SU (10 μM), LY (25 μM), U0 (20 μM) or PF (10 μM). Colony formation was examined by crystal violet staining after treatment for 7 days. The relative colony densities are shown. Migration ability was examined by the (FIG. 3G) wound healing assay at the indicated times. (FIG. 3H) The numbers of migration cell was assessed by a Transwell after treatment for 24 h.
FIGS. 4A to 4L. EpEX induces EMT and invasion by stabilizing β-catenin and Snail through decreasing GSK3β activity. (FIG. 4A) The protein expression of EMT markers and regulators was detected by Western blotting in Wild-type (WT) or EpCAM knockout (KO) HCT116 cells after EpEX treatment. (FIG. 4B) Cell invasion was examined by Transwell chamber assay with matrigel. (FIG. 4C) WT or KO HCT116 and HT29 cells were starved for 16 h, then treated with 0.5 nM of HGF with 2% FBS for 24 h. EMT-related protein expression (E-cadherin, vimentin, and Snail) was examined by Western blotting. (FIG. 4D) WT or KO HCT116 and HT29 cells were treated with HGF (0.5 nM) for 24 h. Invasion by HCT116 and HT29 cells was examined by Transwell chamber assay with matrigel. (FIG. 4E) HCT116 and HT29 cells were starved for 16 h, then treated with 0.5 nM of HGF with 2% FBS for 24 h. EMT-related protein expression (E-cadherin, Vimentin, and Snail) was examined by Western blotting. (FIG. 4F) HCT116 and HT29 cells were starved for 16 h, then treated with 0.5 nM of HGF with 2% FBS for 24 h. Cell invasion was assessed by a Transwell assay with matrigel. (FIG. 4G) HCT116 cells after shLuc and shHGFR treatment were treated with 50 nM of EpEX-His. HCT116 cells after shLuc and shHGFR treatment were treated with 50 nM of EpEX-His with 2% FBS for 24 h. EMT-related protein expression (E-cadherin, Vimentin, and Snail) was examined by Western blotting. (FIG. 4H) Cell invasion was examined by Transwell chamber assay with matrigel. (FIG. 4I) Starved HCT116 cells were treated SU (10 μM) for 1 h, followed by treatment with EpEX-His (50 nM) for 24 h. Phosphorylated GSK3β, active-β-catenin, and Snail were detected by Western blotting. (FIG. 4J) HCT116 cells were starved for 16 h, then treated with 50 nM EpEX-His for 24 min. AKT inhibitor LY294002 (25 μM), ERK inhibitor U0126 (20 μM), or PF-562271 (10 μM) were applied 1 h before EpEX treatment. Protein expression of phosphorylated GSK3β and Snail was examined by Western blotting. (FIG. 4K) HCT116 cells were starved for 16 h, then treated with 50 nM EpEX, and SU (10 μM), LY (25 μM), UO (20 μM) or PF (10 μM). Cell invasion was examined by Transwell chamber assay with matrigel. (FIG. 4L) Protein expression was analyzed by Western blotting in EpEX-His (50 nM) treated HCT116 cells after treatment with or without 2 μM GSK3β inhibitor (BIO) for 24 h. […]

In the next assay the test system is HCT116 or HT29. Kind of assay: Metastatic and orthotopic animal models of colon cancer, overall statements.
Assay [2] has as its system HT29 cells. Kind of assay: Apoptosis assay, annexin V-FITC/PI double labeling, HT29. It is filed as cell-based, human. To be noted: 10 μg/ml EpAb2-6 and 4 μM crizotinib 24 h, FIG. 7F. As for the experimental part:
(§1) FIGS. 7A to 7G. EpAb2-6 binds EpEX and induces apoptosis by F(ab′)2 and inhibits regulated intramembrane proteolysis (RIP) activation and HGFR signaling. (FIG. 7A) Binding affinity of IgG EpAb2-6 (mouse) and F(ab′)2 to EpEX-His (1 μg/ml) coated overnight was checked using ELISA (OD450). (FIG. 7B) HCT116 cells were treated with 100 μg/ml control IgG, Fc, or F(ab′)2 of EpAb2-6 for 24 h. The apoptotic and necrotic cells were quantified by fluorescein annexin V-FITC/PI double labeling. (FIG. 7C) HCT116 and HT29 cells were treated with 10 μg/ml control IgG, MT201, humanized EpAb2-6 (hEpAb2-6) or mouse hybridoma EbAb2-6 (mEpAb2-6) for 24 h. The apoptotic and necrotic cells were quantified by fluorescein annexin V-FITC/PI double labeling. (FIG. 7D) HCT116 cells were treated with 10 μg/ml control IgG, MT201, hEpAb2-6 or mEpAb2-6 for 16 h, followed by treatment with EpEX-His (50 nM) for 15 min. Levels of phosphorylated HGFR, AKT, and ERK, and (FIG. 7E) RIP proteins ADAM17 and presenilin 2 were examined by Western blotting. Anti-EpCAM antibody and crizotinib coordinately induces apoptosis in colon cancer cells. (FIG. 7F) HCT116 and HT29 cells were treated with 10 μg/ml NMIgG or EpAb2-6 and 4 μM HGFR inhibitor crizotinib for 24 h. The apoptotic and necrotic cells were quantified by fluorescein annexin V-FITC/PI double labeling. (FIG. 7G) HCT116 and HT29 cells were treated with 10 μg/ml NMIgG or EpAb2-6 and 10 μM HGFR inhibitor crizotinib. Cell invasion was assessed by a Transwell assay with matrigel after 24 h.
(§2) Cells were seeded and treated with 10 μg/ml mAb or inhibitor for 6 h; an unrelated mouse myeloma immunoglobulin used at appropriate dilution served as the IgG2a (Invitrogen #02-6200) isotype control. Apoptotic cells were detected using Annexin V-FITC and PI, and were analyzed using a flow cytometer (BD Immmunocytometry Systems). Early apoptosis was measured with the Annexin V-FITC Apoptosis Detection kit II (BD Pharmingen). Late apoptotic nuclei were detected with propidium iodide (PI) staining.

Assay [3] relates to HCT116 cells. In words: Apoptosis assay, annexin V-FITC/PI double labeling, HCT116. It is filed as cell-based, human. As for the experimental part:
as §1, §2

The subject of assay [4] is HT29 cells. Kind of assay: Transwell invasion assay with matrigel, HT29. It is filed as cell-based, human. To be noted: 10 μg/ml EpAb2-6 and 10 μM crizotinib, 24 h, vs control IgG, FIG. 7G.
Method: Cell migration and invasion were assayed with 8-μm pore size Transwell migration chambers (Millicell) without or with 10% matrigel. Cells (1×10^5) were added to the upper chamber in 500 μl serum-free DMEM. Then, 700 μl DMEM containing 10% FBS was added to the lower chamber as a chemoattractant. Migration and invasion were allowed to proceed for 16 h at 37° C. in a standard cell culture incubator. Then, cells were removed from the upper surface of the membranes with cotton swabs, and the cells that had migrated to the lower surface were stained with 0.05% (w/v) crystal violet in 4% paraformaldehyde (in 1×PBS) for 15 min and washed with water. Membranes were dried for 15-20 min before at least four random fields on the membrane examined at high power were counted for each experimental condition.

Method for HCT116 or HT29: Colon cancer HCT116 or HT29 (5×10^6 cells/mouse) in PBS were injected into 4-6-week-old female NOD/SCID mice through the tail vein. Mice were then randomly assigned to different treatment groups by body weight. After 3 days, antibodies were administered through tail vein injection twice a week for four consecutive weeks. Crizotinib was administered daily by oral gavage for 5 days per week (treatment for four weeks). For the therapeutic study, tumor-bearing mice were treated with isotype control IgG1 (15 mg/kg), crizotinib (20 mg/kg), EpAb2-6 (15 mg/kg), or crizotinib (20 mg/kg) combined with EpAb2-6 (15 mg/kg). Mouse survival rate were measured.
Orthotopic tumor models were created as previously reported (Chen et al., 2020). Briefly, NSCID mice were used for orthotopic implantation of HCT116 cells previously infected with Lenti-luc virus (lentivirus containing luciferase gene). The mice were anesthetized by i.p. injection ofAvertin, 2,2,2-Tribromo-ethanol (Sigma-Aldrich) at a dose of 250 mg/kg. Tumor development was monitored by bioluminescence imaging. For the therapeutic study, tumor-bearing mice were treated with isotype control IgG1 (15 mg/kg), crizotinib (20 mg/kg), EpAb2-6 (15 mg/kg), or crizotinib (20 mg/kg) combined with EpAb2-6 (15 mg/kg). Tumor progression was monitored by quantification of bioluminescence. Mouse survival was also monitored.

On to `C[C@@H](Oc1cc(-c2cnn(C3CCNCC3)c2)cnc1N)c1c(Cl)ccc(F)c1Cl` [crizotinib, 3-[(1R)-1-(2,6-dichloro-3-fluorophenyl)ethoxy]-5-(1-piperidin-4-ylpyrazol-4-yl)pyridin-2-amine], for which the “effect of crizotinib on the inhibitory effect of EpAb2-6 on invasion” value in the assay with HCT116 cells [1] and in the assay with HT29 cells [4] was “enhanced the inhibitory effect of EpAb2-6 on invasion” each time. Also, the survival result with HCT116 or HT29 is recorded as “poor survival”. In the assay with HCT116 or HT29, the tumor progression result is given as “developed significant tumors”. For the same compound, the “effect of crizotinib on the apoptotic effects of EpAb2-6” value in the assay with HT29 cells [2] is given as “enhance the apoptotic effects of EpAb2-6”; in the assay on HCT116 cells [3] (10 μg/ml EpAb2-6 and 4 μM crizotinib 24 h, FIG. 7F), “enhance the apoptotic effects of EpAb2-6”. Moreover, the “sensitization of HCT116 cells to antibody-induced apoptosis after crizotinib treatment” value in the assay on HCT116 cells [3] (discussion statement) was “sensitized to humanized-EpAb2-6- and EpAb2-6-induced apoptosis”.

The record behind these values is patent US20250269018A1, “COMBINED CANCER THERAPY WITH AN EPITHELIAL CELL ADHESION MOLECULE (EPCAM) INHIBITOR AND A HEPATOCYTE GROWTH FACTOR RECEPTOR (HGFR) INHIBITOR” (ACADEMIA SINICA, priority 2021, published 2025).
